# In patent US12371454B2, “Cyclic peptide compound having Kras inhibitory action” (priority 2019, dated 2025):
# Starred links: 1 amine or outer side, 2 acyl side, 3 side chain; linkers in the order of their positions; H or OH if unused. Positions of bridges follow the written chain, without caps; N, C: chain ends. Non-standard residues stand in square brackets, D forms with d. Residues, ends and D or L forms follow the SMILES beside them. *: point of attachment. hPhe(3,5-F2-4-CF3) = N[C@@H](CCc1cc(F)c(C(F)(F)F)c(F)c1)C(=O)O; hPhe(3-Cl-4-CF3) = N[C@@H](CCc1ccc(C(F)(F)F)c(Cl)c1)C(=O)O; NMePhe(4-Me) = CN[C@@H](Cc1ccc(C)cc1)C(=O)O; NMedβ3hAla = C[C@H](CC(=O)[*:2])N(C)[*:1]; NMeAla(cPent) = CN[C@@H](CC1CCCC1)C(=O)O; X22 = O=C([C@@H]1Cc2ccccc2N1[*:1])[*:2]; Phe(2-OMe) = COc1ccccc1C[C@H](N)C(=O)O; Phe(3-I) = N[C@@H](Cc1cccc(I)c1)C(=O)O; Pro(4,4-F2) = O=C(O)[C@@H]1CC(F)(F)CN1; NMeY = CN[C@@H](Cc1ccc(O)cc1)C(=O)O; NMeCha = CN[C@@H](CC1CCCCC1)C(=O)O; NMehLeu = CN[C@@H](CCC(C)C)C(=O)O; NMeAhp(2) = CCCCC[C@H](NC)C(=O)O; NMeChg = CN[C@H](C(=O)O)C1CCCCC1; NMeF = CN[C@@H](Cc1ccccc1)C(=O)O; NMeI = CC[C@H](C)[C@H](NC)C(=O)O; NMeD = CN[C@@H](CC(=O)O)C(=O)O; NMeL = CN[C@@H](CC(C)C)C(=O)O; NMeV = CN[C@H](C(=O)O)C(C)C; d(β3hA) = C[C@@H](N)CC(=O)O; NMeA = CN[C@@H](C)C(=O)O; NMeAib = CNC(C)(C)C(=O)O; Piperidide = C1CCN(*)CC1; Ac5c = NC1(C(=O)O)CCCC1; Aze = O=C(O)[C@@H]1CCN1; Ac4c = NC1(C(=O)O)CCC1; CF3 = FC(F)(F)*; Sar = CNCC(=O)O
# Biological target: T1, Kras and SOS1 (biotin-tagged human Kras loaded with GDP, His-tagged human SOS1) (Homo sapiens, UniProt P01116, G12D)
# T1 construct: made in house; host or cells: E. coli (stated for Kras only)
# Assay: Protein-protein interaction inhibition between Kras and SOS1 (KrasGl2D-SOS PPI) using AlphaScreen
# Assay type: binding
# Conditions: AlphaScreen; biotin-tagged human Kras loaded with GDP, His-tagged human SOS1; read-out: KRAS G12D-SOS PPI IC50
# Procedure: Protein-Protein Interaction Inhibition Between Kras and SOS1 (KrasGl2D-SOS PPI) Using AlphaScreen
# Protein-protein interaction inhibition (PPI) between Kras and SOS1 was measured by energy transfer from nickel-conjugated donor beads to streptavidin-conjugated acceptor beads using biotin-tagged human Kras expressed in E. coli and loaded with GDP after purification and His-tagged human SOS1 enzyme. This measurement utilizes the phenomenon in which donor beads are irradiated with light at 680 nm, such that energy is transferred to acceptor beads through singlet oxygen and light at 520-620 nm is detected from the acceptor beads.
# Inhibition of binding between K-ras and SOS1 is known to inhibit signaling downstream of Kras.
# T1 sequence (P01116 1-188 isoform P01116-2 G12D): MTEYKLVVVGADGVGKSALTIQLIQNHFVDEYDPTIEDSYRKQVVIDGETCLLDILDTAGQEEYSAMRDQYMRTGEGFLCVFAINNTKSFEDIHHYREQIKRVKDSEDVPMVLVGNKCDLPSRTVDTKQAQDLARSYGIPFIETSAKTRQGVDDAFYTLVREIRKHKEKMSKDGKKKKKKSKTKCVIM
row,SMILES,IC50 [nM]
1,CC[C@H](C)[C@@H]1NC(=O)[C@H](CC(C)C)N(C)C(=O)C[C@@H](C(=O)N(C)C)N(C)C(=O)[C@H]([C@@H](C)CC)N(C)C(=O)C2(CCCC2)NC(=O)[C@H](Cc2ccc(OC(F)(F)F)cc2)N(C)C(=O)[C@H](CCc2ccc(C(F)(F)F)c(Cl)c2)NC(=O)CN(C)C(=O)[C@H](Cc2ccc(C)cc2)N(C)C(=O)[C@@H]2CCN2C(=O)[C@H](C)N(C)C1=O [Compound 1902] ([NMeL]I[NMeA][Aze][NMePhe(4-Me)][Sar][hPhe(3-Cl-4-CF3)][NMeY](CF3)[Ac5c][NMeI][NMeD]-NMe2; lactam N-11),54
2,CC[C@H](C)[C@@H]1NC(=O)[C@H](CC(C)C)N(C)C(=O)C[C@@H](C(=O)N2CCCCC2)N(C)C(=O)[C@H](CC(C)C)NC(=O)C(C)(C)N(C)C(=O)[C@H](Cc2ccccc2OC)NC(=O)[C@H](Cc2cccc(I)c2)NC(=O)CN(C)C(=O)[C@H](Cc2ccc(C)cc2)N(C)C(=O)[C@@H]2CCN2C(=O)CN(C)C1=O [Compound 459] ([NMeL]I[Sar][Aze][NMePhe(4-Me)][Sar][Phe(3-I)][Phe(2-OMe)][NMeAib]L[NMeD]-Piperidide; lactam N-11),9.5
3,CCCCC[C@H]1C(=O)N(C)[C@H](C(=O)N2CCCCC2)CC(=O)N(C)[C@@H](CC(C)C)C(=O)N[C@@H]([C@@H](C)CC)C(=O)N(C)CC(=O)N(C)CC(=O)N(C)[C@@H](CC2CCCCC2)C(=O)N(C)CC(=O)N[C@@H](CCc2ccc(C(F)(F)F)c(Cl)c2)C(=O)N2CCC[C@H]2C(=O)NC2(CCCC2)C(=O)N1C [Compound 1719] ([NMeL]I[Sar][Sar][NMeCha][Sar][hPhe(3-Cl-4-CF3)]P[Ac5c][NMeAhp(2)][NMeD]-Piperidide; lactam N-11),18
4,CC[C@H](C)[C@@H]1NC(=O)[C@H](C)N(C)C(=O)C[C@@H](C(=O)N2CCCCC2)N(C)C(=O)[C@H](C(C)C)N(C)C(=O)C2(CCCC2)NC(=O)[C@@H]2CCCN2C(=O)[C@H](CCc2ccc(C(F)(F)F)c(Cl)c2)NC(=O)CN(C)C(=O)[C@H](Cc2ccccc2)N(C)C(=O)[C@@H]2CCCN2C(=O)CN(C)C1=O [Compound 1753] ([NMeA]I[Sar]P[NMeF][Sar][hPhe(3-Cl-4-CF3)]P[Ac5c][NMeV][NMeD]-Piperidide; lactam N-11),2.5
5,CC[C@H](C)[C@@H]1NC(=O)[C@H](CC(C)C)N(C)C(=O)C[C@@H](C)N(C)C(=O)[C@H](CC2CCCC2)N(C)C(=O)C2(CCCC2)NC(=O)[C@@H]2CCCN2C(=O)[C@H](CCc2ccc(C(F)(F)F)c(Cl)c2)NC(=O)CN(C)C(=O)[C@H](CC2CCCCC2)N(C)C(=O)CN(C)C(=O)CN(C)C1=O [Compound 991] (cyclo([Ac5c][NMeAla(cPent)][NMedβ3hAla][NMeL]I[Sar][Sar][NMeCha][Sar][hPhe(3-Cl-4-CF3)]P)),76
6,CC[C@H](C)[C@@H]1NC(=O)[C@H](CC(C)C)N(C)C(=O)C[C@@H](C(=O)N2CCCCC2)N(C)C(=O)[C@H](C(C)C)N(C)C(=O)C2(CCCC2)NC(=O)[C@@H]2CCCN2C(=O)[C@H](CCc2ccc(C(F)(F)F)c(Cl)c2)NC(=O)CN(C)C(=O)[C@H](CC2CCCCC2)N(C)C(=O)[C@@H]2CCN2C(=O)[C@H](CCC(C)C)N(C)C1=O [Compound 1577] ([NMeL]I[NMehLeu][Aze][NMeCha][Sar][hPhe(3-Cl-4-CF3)]P[Ac5c][NMeV][NMeD]-Piperidide; lactam N-11),50
7,"CC[C@H](C)[C@@H]1NC(=O)[C@H](CC(C)C)N(C)C(=O)C[C@@H](C)N(C)C(=O)[C@H](C2CCCCC2)N(C)C(=O)C2(CCC2)NC(=O)[C@@H]2CC(F)(F)CN2C(=O)[C@H](CCc2cc(F)c(C(F)(F)F)c(F)c2)NC(=O)CN(C)C(=O)[C@H](CC2CCCCC2)N(C)C(=O)CN(C)C(=O)CN(C)C1=O [Compound 738] (cyclo([Ac4c][NMeChg][NMedβ3hAla][NMeL]I[Sar][Sar][NMeCha][Sar][hPhe(3,5-F2-4-CF3)][Pro(4,4-F2)]))",15
8,CC[C@H](C)[C@@H]1NC(=O)[C@H](CC(C)C)N(C)C(=O)C[C@@H](C(=O)N2CCCCC2)N(C)C(=O)[C@H](C2CCCCC2)N(C)C(=O)C2(CCCC2)NC(=O)[C@@H]2Cc3ccccc3N2C(=O)[C@H](CCc2ccc(C(F)(F)F)c(Cl)c2)NC(=O)CN(C)C(=O)[C@H](CC2CCCCC2)N(C)C(=O)[C@@H]2CCN2C(=O)[C@H](C)N(C)C1=O [Compound 812] ([NMeL]I[NMeA][Aze][NMeCha][Sar][hPhe(3-Cl-4-CF3)][X22][Ac5c][NMeChg][NMeD]-Piperidide; lactam N-11),36
9,CC[C@H](C)[C@@H]1NC(=O)[C@H](C)N(C)C(=O)C[C@@H](C)NC(=O)[C@H](C2CCCCC2)N(C)C(=O)C2(CCCC2)NC(=O)[C@@H]2CCCN2C(=O)[C@H](CCc2ccc(C(F)(F)F)c(Cl)c2)NC(=O)CN(C)C(=O)[C@H](CC2CCCCC2)N(C)C(=O)CN(C)C(=O)CN(C)C1=O [Compound 1688] (cyclo([Ac5c][NMeChg][d(β3hA)][NMeA]I[Sar][Sar][NMeCha][Sar][hPhe(3-Cl-4-CF3)]P)),24
